Measurements: patent US10322112B2, “Compound combinations for attenuation of bacterial virulence” (priority 2016, dated 2019)
“Also recorded” adds a separate entry of the source.

Assays:
P. aeruginosa (PAO1) = assay: P. aeruginosa growth curves; type: cell-based, Pseudomonas aeruginosa
Protocol: FIGS. 2A-2D are wild-type P. aeruginosa growth curves in the presence of test compounds in various media. Related to FIGS. 3, 6A and 6B, 7A and 7B, and 12. (FIG. 2A) Growth curves in complete MOPS/Glutamate. (FIG. 2B) Growth curves in complete MOPS/Glucose. […] (FIG. 2D) Growth curves in SCFM2. P. aeruginosa (PAO1) was grown in a manner identical to the pyocyanin assay (see Experimental Procedures). At each time point, growth was measured by either reading OD600 (for MOPS media) or by serially diluting culture aliquots, plating on LB agar, and counting CFUs after overnight incubation at 37° C. (for SCFM2). Compound concentrations are 100 microM for compounds 1, 2, and 3 and 25 microM for compound 4 in all experiments unless noted otherwise. Error bars represent the standard error of at least two biological replicates (n≥2). BHL=N-butyryl L-homoserine lactone (Cayman Chemicals).
B. Bacterial Strains and Growth Conditions. Protocols for construction of genetic knockout strains are described below in Example 2. All reagents for bacterial culture were purchased from Sigma-Aldrich unless indicated otherwise. Bacteria were routinely cultured in Luria-Bertani broth (LB) at 37° C. with shaking at 200 rpm. Freezer stocks of bacterial strains were maintained at −80° C. in 1:1 LB:glycerol. Bacterial growth was routinely assessed by measuring the culture cell density according to absorbance at 600 nm (OD600341). Cell growth in simulated cystic fibrosis sputum medium (SCFM2) was determined by serially diluting assay cultures, plating on LB agar, and counting the number of colony forming units (CFU) appearing after overnight incubation at 37° C.

RhlR = target: T1, RhlR (Pseudomonas aeruginosa, UniProt P54292); assay: E. coli reporter gene primary agonism assay, RhlR; type: cell-based; conditions: compounds at 100 mm; 900 mm BHL = 100%; error ±10%; selected data reproduced from Welsh et al., 2015
T1 construct: expressed in transfected cells; host or cells: E. coli JLD271
Protocol: (§1) Percent agonism of a given non-native inducer in a given bacterium and QS system receptor is measured with resepct to the maximum level of agonism (activation) by the native ligand of that receptor in the given bacterium. Percent antagonism is measured in competitive assays. The QS system of interest is activated to 100% with added or endogenous native ligand and the % antagonism of the non-native inducer is assessed with respect to 100% activation by the native inducer. The native ligand which induces LasR is OdDHL, which induces RhlR is BHL and which induces PqsR is PQS. As described herein and in cited references, assays for assessment of % agonism or % atangonism may be performed in E. coli systems (heterologous) or in the bacterium of interest, e.g., Pseudomonas. Dependent upon the assay system employed native ligand may be endogenously present or it may be exogenously supplied to the assay system. […] In antagonism assays using the native strains with functional QS systems, e.g., those of P. aeruginosa, endogenous native ligand is made in the system, so no native ligand is added. In native strains having one or more non-functional QS systems (mutant strains), e.g., P. aeruginosa mutants with non-functional QS systems, native ligand is added at about 10-100× the EC50 of the native ligand. In the agonism assay, native ligand is added as a control. Details of the assays are provided herein in Example 9 and in references cited in Example 9.

LasR = target: T2, LasR (Pseudomonas aeruginosa, UniProt P25084); assay: E. coli reporter gene primary agonism assay, LasR; type: cell-based; conditions: compounds at 100 mm; E. coli reporter strain JLD271/pJN105L/pSC11; 100 mm OdDHL = 100%; error ±10%
T2 construct: expressed in transfected cells; host or cells: E. coli JLD271
Protocol: as §1

T2 sequence (P25084 whole entry): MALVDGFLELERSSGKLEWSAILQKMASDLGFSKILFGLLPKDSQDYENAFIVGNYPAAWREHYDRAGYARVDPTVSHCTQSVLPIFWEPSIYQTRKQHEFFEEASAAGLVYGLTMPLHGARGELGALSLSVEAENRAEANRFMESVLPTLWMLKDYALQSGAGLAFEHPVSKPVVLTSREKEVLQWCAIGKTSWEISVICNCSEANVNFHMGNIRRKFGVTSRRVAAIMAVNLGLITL
T1 sequence (P54292 whole entry): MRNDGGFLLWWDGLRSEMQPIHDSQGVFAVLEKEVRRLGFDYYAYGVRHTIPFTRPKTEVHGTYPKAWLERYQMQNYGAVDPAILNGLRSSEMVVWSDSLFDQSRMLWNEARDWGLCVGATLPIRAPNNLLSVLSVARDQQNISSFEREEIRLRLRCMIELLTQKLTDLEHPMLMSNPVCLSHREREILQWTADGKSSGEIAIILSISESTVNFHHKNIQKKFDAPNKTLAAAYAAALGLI

## O=C(N[C@H]1CCOC1=O)C1CCCC1 [compound 3]
P. aeruginosa (PAO1); complete MOPS Glucose or LB broth, 100 μM compound 3
  growth with other carbon sources: did not observe growth effects with other carbon sources
P. aeruginosa (PAO1); complete MOPS Glutamate, 100 μM
  growth in MOPS Glutamate: growth delay; also recorded: delayed P. aeruginosa growth in MOPS Glutamate
RhlR
  Activation [%] RhlR: 91%
LasR
  Activation [%] LasR: −4%
